# Literature values in patent US20150335557A1, “ANTI-PLAQUE ORAL COMPOSITIONS” (priority 2012, published 2015).
# Details: @ 79° F.
smiles,measurement,value
"CS(C)(=O)=O [MSM, methylsulfonylmethane]",water solubility,34 % w/v
